Assay results from ChEMBL document CHEMBL1201862, “PubChem BioAssay data set” (2004).
Several values for one entry are separate records, joined by “and”; a condition that tells them apart may be missing. Identical values can stand only once.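 Grown in 96-well plates, cells were treated for 48 hours with each compound at five concentrations. Insufficient inhibition: endpoint recorded as highest concentration tested. The concentration for 50% growth inhibition is given as GI50.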 Activity calls are given as the source filed them. Cut-off read from the data, not from the text of the source: active = GI50 up to about 1.1 µM and inactive = higher.

What was measured:
Assay in all cases: inhibition of tumour cell growth, NCI panel, 48 h
SR = test system: SR
KM12 = test system: KM12
UACC-62 = test system: UACC-62
U-251 = test system: U-251
HT-29 = test system: HT-29
CAKI-1 = test system: CAKI-1
HOP-62 = test system: HOP-62
SF-539 = test system: SF-539
TK-10 = test system: TK-10
OVCAR-5 = test system: OVCAR-5
CCRF-CEM = test system: CCRF-CEM
SK-MEL-5 = test system: SK-MEL-5
SW-620 = test system: SW-620
RXF 393 = test system: RXF 393
OVCAR-4 = test system: OVCAR-4
SF-295 = test system: SF-295
NCI-H226 = test system: NCI-H226
DU-145 = test system: DU-145
MDA-MB-231 = test system: MDA-MB-231

Row | SMILES | GI50 (SR) | GI50 (KM12) | GI50 (UACC-62) | GI50 (U-251) | GI50 (HT-29) | GI50 (CAKI-1) | GI50 (HOP-62) | GI50 (SF-539) | GI50 (TK-10) | GI50 (OVCAR-5) | GI50 (CCRF-CEM) | GI50 (SK-MEL-5) | GI50 (SW-620) | GI50 (RXF 393) | GI50 (OVCAR-4) | GI50 (SF-295) | GI50 (NCI-H226) | GI50 (DU-145) | GI50 (MDA-MB-231)
1 | O=C1C(Cl)=C(Cl)C(=O)N1c1ccccc1Cl | 14.7 µM (inactive) | > 100 µM (inactive) | > 100 µM (inactive) | > 100 µM (inactive) | > 71 µM (inactive) | > 44.2 µM (inactive) | > 100 µM (inactive) | > 100 µM (inactive) | > 100 µM (inactive) | > 100 µM (inactive) | 11.9 µM (inactive) | > 100 µM (inactive) | > 52.6 µM (inactive) | 50.2 µM (inactive) | > 100 µM (inactive) | > 100 µM (inactive) | > 100 µM (inactive) | – | –
2 | COc1ccc(-n2c(=O)c3nc(S)[nH]c3n(-c3ccc(OC)cc3)c2=S)cc1 | > 100 µM (inactive) | > 100 µM (inactive) | > 100 µM (inactive) | > 100 µM (inactive) | > 100 µM (inactive) | > 100 µM (inactive) | > 100 µM (inactive) | > 100 µM (inactive) | > 100 µM (inactive) | > 100 µM (inactive) | > 100 µM (inactive) | > 100 µM (inactive) | > 100 µM (inactive) | > 100 µM (inactive) | > 100 µM (inactive) | > 100 µM (inactive) | > 100 µM (inactive) | > 100 µM (inactive) | > 100 µM (inactive)
3 | CN1CCOC(C(NC(=O)c2ccccc2)c2ccccc2)C1=O (configuration not stated) | > 100 µM (inactive) | > 100 µM (inactive) | > 100 µM (inactive) | > 100 µM (inactive) | > 100 µM (inactive) | > 100 µM (inactive) | > 100 µM (inactive) | > 100 µM (inactive) | > 100 µM (inactive) | > 100 µM (inactive) | > 100 µM (inactive) | > 100 µM (inactive) | > 100 µM (inactive) | > 100 µM (inactive) | > 100 µM (inactive) | > 100 µM (inactive) | > 100 µM (inactive) | – | –
4 | CC1(C)Cc2cc(C(=O)O)c3c(c2C1=O)COCC3 | > 100 µM (inactive) | > 100 µM (inactive) | > 100 µM (inactive) | > 100 µM (inactive) | > 100 µM (inactive) | > 100 µM (inactive) | > 100 µM (inactive) | > 100 µM (inactive) | > 10 µM (inactive) | > 100 µM (inactive) | > 100 µM (inactive) | > 100 µM (inactive) | > 100 µM (inactive) | > 100 µM (inactive) | > 100 µM (inactive) | > 100 µM (inactive) | > 100 µM (inactive) | – | –
5 | O=C(NC1CCCCCC1)C1C(=O)N(C2CCCCCC2)C(=O)/C1=N\O (configuration not stated) | 23.8 µM (inactive) | 37.1 µM (inactive) | 21 µM (inactive) | 18.6 µM (inactive) | 30.3 µM (inactive) | 40.2 µM (inactive) | 18.7 µM (inactive) | 25.2 µM (inactive) | 6.12 µM (inactive) | 50.8 µM (inactive) | 27.2 µM (inactive) | 36.1 µM (inactive) | 37.6 µM (inactive) | 23.5 µM (inactive) | 44.1 µM (inactive) | 36.6 µM (inactive) | 35.6 µM (inactive) | – | –
6 | COc1ccc(/C=C2\CNC/C(=C\c3ccc(OC)cc3)C2=O)cc1 | 24.8 µM (inactive) | 15.9 µM (inactive) | 49.4 µM (inactive) | 17.6 µM (inactive) | 27.2 µM (inactive) | 14.1 µM (inactive) | > 100 µM (inactive) | 13.6 µM (inactive) | > 100 µM (inactive) | > 100 µM (inactive) | 12.4 µM (inactive) | > 100 µM (inactive) | 15.8 µM (inactive) | 21 µM (inactive) | 76.9 µM (inactive) | 31.1 µM (inactive) | > 100 µM (inactive) | – | –
7 | COC(=O)N/N=c1\cc(C(=O)Nc2ccc(C)c(C)c2)oc2cc(O)ccc12 | > 100 µM (inactive) | > 100 µM (inactive) | > 100 µM (inactive) | > 100 µM (inactive) | > 100 µM (inactive) | > 100 µM (inactive) | > 100 µM (inactive) | > 100 µM (inactive) | > 100 µM (inactive) | > 100 µM (inactive) | > 100 µM (inactive) | > 100 µM (inactive) | > 100 µM (inactive) | > 100 µM (inactive) | > 100 µM (inactive) | > 100 µM (inactive) | > 100 µM (inactive) | – | –
8 | C[C@@]1(CBr)C[C@@](C)(/C=C/Cl)[C@@H](Cl)C[C@H]1Cl | 1.9 µM (inactive) | 7.83 µM (inactive) | 15.5 µM (inactive) | 14.2 µM (inactive) | 9.04 µM (inactive) | 17.3 µM (inactive) | 14.2 µM (inactive) | 14.6 µM (inactive) | 14.7 µM (inactive) | 13.5 µM (inactive) | 2.92 µM (inactive) | 13.3 µM (inactive) | 13.9 µM (inactive) | 13.8 µM (inactive) | 11.6 µM (inactive) | 13.8 µM (inactive) | 12.8 µM (inactive) | – | –
9 | COc1ccccc1/C=C(/C)[N+](=O)[O-] | – | 2.96 µM (inactive) and 1.74 µM (inactive) | 1.89 µM (inactive) and 1.58 µM (inactive) | 1.68 µM (inactive) and 1.79 µM (inactive) | 3.65 µM (inactive) and 3.44 µM (inactive) | – | 1.81 µM (inactive) and 3.37 µM (inactive) | 1.77 µM (inactive) and 2.28 µM (inactive) | 2.06 µM (inactive) and 4.06 µM (inactive) | – | – | 2.07 µM (inactive) and 1.85 µM (inactive) | 2.43 µM (inactive) and 2.02 µM (inactive) | – | 5.94 µM (inactive) and 3.86 µM (inactive) | – | 2.02 µM (inactive) and 2.34 µM (inactive) | 1.02 µM (active) and 1.04 µM (active) | 3.43 µM (inactive) and 4.86 µM (inactive)
10 | COc1cc2c(cc1OC)C1(c3ccc(Cl)cc3)ON=C(c3ccccc3)N1CS2 (configuration not stated) | 7.05 µM (inactive) | > 100 µM (inactive) | 36 µM (inactive) | > 100 µM (inactive) | 15.5 µM (inactive) | > 100 µM (inactive) | > 100 µM (inactive) | > 100 µM (inactive) | > 100 µM (inactive) | > 100 µM (inactive) | 41 µM (inactive) | > 100 µM (inactive) | > 100 µM (inactive) | 21.2 µM (inactive) | > 100 µM (inactive) | 95.3 µM (inactive) | > 100 µM (inactive) | – | –
11 | Cc1nnc(N/N=C2\C(=O)Nc3ccccc32)n1N | > 100 µM (inactive) | > 100 µM (inactive) | > 100 µM (inactive) | > 100 µM (inactive) | > 100 µM (inactive) | > 100 µM (inactive) | > 100 µM (inactive) | > 100 µM (inactive) | > 100 µM (inactive) | > 100 µM (inactive) | > 100 µM (inactive) | > 100 µM (inactive) | > 100 µM (inactive) | > 100 µM (inactive) | > 100 µM (inactive) | > 100 µM (inactive) | > 100 µM (inactive) | – | –
12 | CN1C(c2ccccc2)CC(=NO)CC1c1ccccc1 (configuration not stated) | 26.9 µM (inactive) | 31.6 µM (inactive) | 39.8 µM (inactive) | 67.6 µM (inactive) | 35.9 µM (inactive) | 48.2 µM (inactive) | > 100 µM (inactive) | 41.2 µM (inactive) | > 100 µM (inactive) | 67.3 µM (inactive) | 28.2 µM (inactive) | 38.2 µM (inactive) | 48.8 µM (inactive) | 62.5 µM (inactive) | 40.2 µM (inactive) | 41.5 µM (inactive) | 74 µM (inactive) | – | –
